Experimental findings from patent publication US12139520B2 (priority 2020, dated 2024) are described below.

Numbered stars: 1 amine (or outer) side, 2 acyl side, 3 side chain; on linkers, the order of the positions; unused ones are H or OH. Bridge positions count the residues as written; N and C are the ends. Square brackets hold non-standard residues; d marks the D form. Peptide text beside a SMILES is read from it. * marks the point of attachment. C20 diacid = O=C(O)CCCCCCCCCCCCCCCCCCC(=O)*; γGlu = O=C(O)[C@H](CCC(=O)[*:2])N[*:1]; Hyp = O=C(O)[C@@H]1C[C@@H](O)CN1; Trx = NC[C@H]1CC[C@H](C(=O)O)CC1; AEEA = NCCOCCOCC(=O)O Some results are limits rather than exact numbers.

Assay [1] addresses T1, hAMY3 receptor (Homo sapiens, UniProt O60896+P30988).
T1 sequence (P30988 25-474): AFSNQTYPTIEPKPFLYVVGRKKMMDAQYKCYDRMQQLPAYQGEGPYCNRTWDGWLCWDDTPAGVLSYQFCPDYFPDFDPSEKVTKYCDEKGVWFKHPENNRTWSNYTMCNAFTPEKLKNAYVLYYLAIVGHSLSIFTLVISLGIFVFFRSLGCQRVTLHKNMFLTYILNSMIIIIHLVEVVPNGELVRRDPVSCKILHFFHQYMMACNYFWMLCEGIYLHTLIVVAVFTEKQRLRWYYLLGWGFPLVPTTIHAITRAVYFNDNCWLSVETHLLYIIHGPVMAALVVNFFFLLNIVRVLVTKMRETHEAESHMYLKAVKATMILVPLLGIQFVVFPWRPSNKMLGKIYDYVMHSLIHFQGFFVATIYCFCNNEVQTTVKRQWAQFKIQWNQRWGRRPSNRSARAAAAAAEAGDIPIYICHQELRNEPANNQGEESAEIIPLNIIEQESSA
T1 sequence (O60896 24-148 partner): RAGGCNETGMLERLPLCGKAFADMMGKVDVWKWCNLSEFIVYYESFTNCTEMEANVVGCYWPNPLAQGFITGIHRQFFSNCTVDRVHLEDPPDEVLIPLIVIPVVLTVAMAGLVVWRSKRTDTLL
The experiment in a line: cAMP assay for in vitro receptor activation, hAMY3-R. Format: cell-based. Particulars: cAMP assay, hAMY3 receptor; read-out: hAMY3R EC50. Summed up:
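Stable hAMY3 cells; DPBS + 0.05% casein + 0.5 mM IBMX; graded compound doses, 30 min, RT; cAMP via HTRF Gs kit, TR-FRET read at 1 h.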
(In general: Cyclic AMP is a second messenger, typically raised through Gs and lowered through Gi signalling.)

For assay [2], the target named is hAM1 receptor (Homo sapiens, UniProt O60895+Q16602). The experiment in a line: cAMP assay for in vitro receptor activation, hAM1-R. Format: cell-based. Particulars: cAMP assay, hAM1 receptor; read-out: hAM1R EC50. Summed up:
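Monoclonal stable hAM1-overexpressing cells, thawed from frozen stock; 8000 cells/well in DPBS + 0.05% casein + 0.5 mM IBMX; read-out cAMP.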

Broadly, the EC50 is the concentration giving half of the maximal effect.

hAM1 receptor, sequence (Q16602 23-461): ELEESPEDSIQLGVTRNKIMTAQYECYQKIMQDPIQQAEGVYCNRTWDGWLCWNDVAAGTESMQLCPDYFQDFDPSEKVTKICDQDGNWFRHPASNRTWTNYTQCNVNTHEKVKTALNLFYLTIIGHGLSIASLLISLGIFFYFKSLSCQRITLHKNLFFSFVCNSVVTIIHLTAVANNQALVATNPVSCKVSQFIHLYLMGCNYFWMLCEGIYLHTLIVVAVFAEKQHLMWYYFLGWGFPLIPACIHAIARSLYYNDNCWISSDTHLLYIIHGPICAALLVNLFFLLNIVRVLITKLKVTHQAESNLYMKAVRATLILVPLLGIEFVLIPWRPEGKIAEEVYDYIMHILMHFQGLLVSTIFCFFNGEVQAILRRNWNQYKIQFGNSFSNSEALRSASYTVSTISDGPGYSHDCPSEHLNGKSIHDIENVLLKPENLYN
hAM1 receptor, sequence (O60895 43-175 partner): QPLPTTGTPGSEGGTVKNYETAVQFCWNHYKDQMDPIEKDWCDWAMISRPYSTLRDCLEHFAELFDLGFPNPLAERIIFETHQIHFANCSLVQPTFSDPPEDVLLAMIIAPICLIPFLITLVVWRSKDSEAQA

`CC[C@H](C)[C@H](NC(=O)[C@H](CCC(N)=O)NC(=O)[C@H](CCC(=O)O)NC(=O)[C@H](C)NC(=O)[C@H](CC(C)C)NC(=O)[C@H](CCCNC(=N)N)NC(=O)[C@H](CCC(N)=O)NC(=O)[C@@H](NC(=O)[C@@H](NC(=O)[C@@H]1CSSC[C@H](NC(=O)[C@H](CCCCN)NC(=O)COCCOCCNC(=O)COCCOCCNC(=O)CC[C@H](NC(=O)[C@H]2CC[C@H](CNC(=O)CCCCCCCCCCCCCCCCCCC(=O)O)CC2)C(=O)O)C(=O)N[C@@H](CC(N)=O)C(=O)N[C@@H]([C@@H](C)O)C(=O)N[C@@H](C)C(=O)N[C@@H]([C@@H](C)O)C(=O)N1)[C@@H](C)O)C(C)C)C(=O)N[C@@H](Cc1ccc(O)cc1)C(=O)N[C@@H](CCC(N)=O)C(=O)N[C@@H](Cc1ccccc1)C(=O)N[C@H](C(=O)N[C@@H](CC(=O)O)C(=O)N[C@@H](CCCCN)C(=O)N[C@@H](CC(=O)O)C(=O)N[C@@H](CCCCN)C(=O)N[C@@H](CC(=O)O)C(=O)N[C@@H](CC(N)=O)C(=O)N[C@H](C(=O)N[C@@H](C)C(=O)N1CCC[C@H]1C(=O)N1CCC[C@H]1C(=O)N[C@H](C(=O)N[C@@H](CC(N)=O)C(=O)N[C@H](C(=O)NCC(=O)N[C@@H](CO)C(=O)N[C@@H](CC(N)=O)C(=O)NCC(=O)N1C[C@H](O)C[C@H]1C(N)=O)C(C)C)[C@@H](C)O)C(C)C)[C@@H](C)O` [compound 126] ({C20 diacid-Trx-γGlu-AEEA-AEEA}-KCNTATCTVQRLAEQIYQFTDKDKDNVAPPTNVGSNG[Hyp]-NH2; disulfide 2-7): the results for the EC50 in assay [1] and in assay [2] were 0.027 nM and over 5000 nM, respectively.

As to `CC[C@H](C)[C@H](NC(=O)[C@H](CCC(N)=O)NC(=O)[C@H](Cc1c[nH]cn1)NC(=O)[C@H](C)NC(=O)[C@H](CC(C)C)NC(=O)[C@H](CCCNC(=N)N)NC(=O)[C@H](CCC(N)=O)NC(=O)[C@@H](NC(=O)[C@@H](NC(=O)[C@@H]1CSSC[C@H](NC(=O)[C@H](CCCCN)NC(=O)CC[C@H](NC(=O)CCCCCCCCCCCCCCCCCCC(=O)O)C(=O)O)C(=O)N[C@@H](CC(N)=O)C(=O)N[C@@H]([C@@H](C)O)C(=O)N[C@@H](CO)C(=O)N[C@@H]([C@@H](C)O)C(=O)N1)[C@@H](C)O)C(C)C)C(=O)N[C@@H](Cc1ccc(O)cc1)C(=O)N[C@@H](CCC(N)=O)C(=O)N[C@@H](Cc1ccccc1)C(=O)N[C@H](C(=O)N[C@@H](CC(=O)O)C(=O)N[C@@H](CCCCN)C(=O)N[C@@H](CC(=O)O)C(=O)N[C@@H](CCCCN)C(=O)N[C@@H](CC(=O)O)C(=O)N[C@@H](CC(N)=O)C(=O)N[C@H](C(=O)N[C@@H](C)C(=O)N1CCC[C@H]1C(=O)N1CCC[C@H]1C(=O)N[C@H](C(=O)N[C@@H](CC(N)=O)C(=O)N[C@H](C(=O)NCC(=O)N[C@@H](CO)C(=O)N[C@@H](CC(N)=O)C(=O)NCC(=O)N1C[C@H](O)C[C@H]1C(N)=O)C(C)C)[C@@H](C)O)C(C)C)[C@@H](C)O` [compound 50] ({C20 diacid-γGlu}-KCNTSTCTVQRLAHQIYQFTDKDKDNVAPPTNVGSNG[Hyp]-NH2; disulfide 2-7), the EC50 in assay [1] is 0.011 nM; in assay [2], over 5000 nM.

For `CC[C@H](C)[C@H](NC(=O)[C@H](CCCCN)NC(=O)[C@H](CO)NC(=O)[C@H](CCCNC(=N)N)NC(=O)[C@@H]1CCCN1C(=O)[C@H](C)NC(=O)[C@@H](NC(=O)[C@H](CC(N)=O)NC(=O)[C@H](CC(=O)O)NC(=O)[C@H](CCCCN)NC(=O)[C@H](CC(=O)O)NC(=O)[C@H](CCCCN)NC(=O)[C@H](CC(=O)O)NC(=O)[C@@H](NC(=O)[C@H](Cc1ccccc1)NC(=O)[C@H](CCC(N)=O)NC(=O)[C@H](Cc1ccc(O)cc1)NC(=O)[C@@H](NC(=O)[C@H](CCC(N)=O)NC(=O)[C@H](Cc1c[nH]cn1)NC(=O)[C@H](C)NC(=O)[C@H](CC(C)C)NC(=O)[C@H](CCCNC(=N)N)NC(=O)[C@H](CCC(N)=O)NC(=O)[C@@H](NC(=O)[C@@H](NC(=O)[C@@H]1CSSC[C@H](NC(=O)CN)C(=O)N[C@@H](CCCNC(=N)N)C(=O)N[C@@H](Cc2ccccc2)C(=O)NCC(=O)N[C@@H]([C@@H](C)O)C(=O)N1)[C@@H](C)O)C(C)C)[C@@H](C)CC)[C@@H](C)O)C(C)C)C(=O)NCC(=O)N1CCC[C@H]1C(=O)N[C@@H](CCC(N)=O)C(=O)NCC(=O)N1C[C@H](O)C[C@H]1C(N)=O` [compound 127] (H-GCRFGTCTVQRLAHQIYQFTDKDKDNVAPRSKIGPQG[Hyp]-NH2; disulfide 2-7; N-terminus assumed), the EC50 in assay [1] came out at 0.028 nM; in assay [2] it was 107 nM.

For the molecule `CC[C@H](C)[C@H](NC(=O)[C@H](CCC(N)=O)NC(=O)[C@H](CC(N)=O)NC(=O)[C@H](C)NC(=O)[C@H](CC(C)C)NC(=O)[C@H](CCCNC(=N)N)NC(=O)[C@H](CCC(N)=O)NC(=O)[C@@H](NC(=O)[C@@H](NC(=O)[C@@H]1CSSC[C@H](NC(=O)[C@H](CCCCN)NC(=O)CC[C@H](NC(=O)CCCCCCCCCCCCCCCCCCC(=O)O)C(=O)O)C(=O)N[C@@H](CC(N)=O)C(=O)N[C@@H]([C@@H](C)O)C(=O)N[C@@H](C)C(=O)N[C@@H]([C@@H](C)O)C(=O)N1)[C@@H](C)O)C(C)C)C(=O)N[C@@H](Cc1ccc(O)cc1)C(=O)N[C@@H](CCC(N)=O)C(=O)N[C@@H](Cc1ccccc1)C(=O)N[C@H](C(=O)N[C@@H](CC(=O)O)C(=O)N[C@@H](CCCCN)C(=O)N[C@@H](CC(=O)O)C(=O)N[C@@H](CCCCN)C(=O)N[C@@H](CC(=O)O)C(=O)N[C@@H](CC(N)=O)C(=O)N[C@H](C(=O)N[C@@H](C)C(=O)N1CCC[C@H]1C(=O)N1CCC[C@H]1C(=O)N[C@H](C(=O)N[C@@H](CC(N)=O)C(=O)N[C@H](C(=O)NCC(=O)N[C@@H](CO)C(=O)N[C@@H](CC(N)=O)C(=O)NCC(=O)N1C[C@H](O)C[C@H]1C(N)=O)C(C)C)[C@@H](C)O)C(C)C)[C@@H](C)O` [compound 21] ({C20 diacid-γGlu}-KCNTATCTVQRLANQIYQFTDKDKDNVAPPTNVGSNG[Hyp]-NH2; disulfide 2-7), the concentration giving a half-maximal response (EC50) was 0.008 nM in assay [1] and over 5000 nM in assay [2].

As to `CC[C@H](C)[C@H](NC(=O)[C@H](CCC(N)=O)NC(=O)[C@H](CCC(=O)O)NC(=O)[C@H](C)NC(=O)[C@H](CC(C)C)NC(=O)[C@H](CCCNC(=N)N)NC(=O)[C@H](CCC(N)=O)NC(=O)[C@@H](NC(=O)[C@@H](NC(=O)[C@@H]1CSSC[C@H](NC(=O)[C@H](CCCCN)NC(=O)CC[C@H](NC(=O)CCCCCCCCCCCCCCCCCCC(=O)O)C(=O)O)C(=O)N[C@@H](CC(N)=O)C(=O)N[C@@H]([C@@H](C)O)C(=O)N[C@@H](C)C(=O)N[C@@H]([C@@H](C)O)C(=O)N1)[C@@H](C)O)C(C)C)C(=O)N[C@@H](Cc1ccc(O)cc1)C(=O)N[C@@H](CCC(N)=O)C(=O)N[C@@H](Cc1ccccc1)C(=O)N[C@H](C(=O)N[C@@H](CC(=O)O)C(=O)N[C@@H](CCCCN)C(=O)N[C@@H](CC(=O)O)C(=O)N[C@@H](CCCCN)C(=O)N[C@@H](CC(=O)O)C(=O)N[C@@H](CC(N)=O)C(=O)N[C@H](C(=O)N[C@@H](C)C(=O)N1CCC[C@H]1C(=O)N1CCC[C@H]1C(=O)N[C@H](C(=O)N[C@@H](CC(N)=O)C(=O)N[C@H](C(=O)NCC(=O)N[C@@H](CO)C(=O)N[C@@H](CC(N)=O)C(=O)NCC(=O)N1C[C@H](O)C[C@H]1C(N)=O)C(C)C)[C@@H](C)O)C(C)C)[C@@H](C)O` [compound 51] ({C20 diacid-γGlu}-KCNTATCTVQRLAEQIYQFTDKDKDNVAPPTNVGSNG[Hyp]-NH2; disulfide 2-7), the EC50 in assay [1] is 0.011 nM; in assay [2], over 5000 nM.
